Data published in patent US8247211B2, “Glycopeptide antibiotics” (American Cyanamid Company, priority 2001, dated 2012).
Values after ≈ are worked out from the molar mass of the structure shown.

Key:
Test in all cases: In vitro antibacterial evaluation: minimum inhibitory concentration (MIC), broth dilution method
Type in all cases: cell-based
[1] = test system: Escherichia coli; details: strain GC 4560
Experimental: (§1) The minimum inhibitory concentration (MIC), the lowest concentration of the antibiotic which inhibits growth of the test organism, is determined by the broth dilution method using Muller-Hinton II […] (Baltimore Biological Laboratories) following the recommendations of the National Committee for Clinical Laboratory Standards [Methods for dilution antimicrobial susceptibility tests for bacteria that grow aerobically, approved standard M7-A2, National Committee for Clinical Laboratory Standards, Villanova, Pa].
(§2) An inoculum level of 5×10^5 CFU/mL, and a range of antibiotic concentrations (64-0.06 μg/mL) is used. […] The test organisms include a spectrum of Gram-positive bacteria comprised of Staphylococcus sp., Streptococcus sp. and Enterococcus sp. These organisms include recent clinical isolates that are resistant to methicillin, penicillin and/or vancomycin.

[2] = test system: Streptococcus sp.
Experimental: as §1, §2

[3] = test system: Staphylococcus sp.; details: broth dilution, 18 hours at 35° C.
Experimental: as §1, §2

[4] = test system: Enterococcus sp.
Experimental: as §1, §2

Structure (SMILES): CC(C)=CCCC(C)=CCN=C1NCC(C(O)C2NC(=O)C(C(O)C3CNC(=N)N3)NC(=O)C(Cc3ccc(OC4OC(CO)C(OC5OC6COC7(OC6C(O)C5O)C5CC6CC(C5)CC7C6)C(O)C4O)cc3)NC(=O)C(C(C)c3ccccc3)NC(=O)CNC(=O)C(CO)NC2=O)N1C1OC(CO)C(O)C(O)C1O (stereo not drawn) [Example 82, Cyclo[glycyl-β-methylphenylalanyl-O-[4-O-[4,6-O-(2-adamantylidene)hexopyranosyl]hexopyranosyl]tyrosyl-3-(2-iminoimidazolidin-4-yl)seryl-3-[1-[(3,7-dimethylocta-2,6-dien-1-yl)-imino]-3-hexopyranosylimidazolidin-4-yl]serylseryl]]
- MIC Escherichia coli (GC 4560) [1]: 4 µg/mL (≈ 2.56 µM)
- MIC Streptococcus agalactiae (GC 4564) ([2]; Streptococcus agalactiae (GC 4564), broth dilution, 18 hours at 35° C.): 0.5 µg/mL (≈ 0.32 µM)
- MIC Streptococcus pneumoniae (ATCC 6301) ([2]; Streptococcus pneumoniae (ATCC 6301), broth dilution, 18 hours at 35° C.): 2 µg/mL (≈ 1.28 µM)
- MIC Streptococcus pneumoniae (GC 1894) ([2]; Streptococcus pneumoniae (GC 1894), broth dilution, 18 hours at 35° C.): 0.25 µg/mL (≈ 0.16 µM)
- MIC Streptococcus pneumoniae (GC 4565) ([2]; Streptococcus pneumoniae (GC 4565), broth dilution, 18 hours at 35° C.): 2 µg/mL (≈ 1.28 µM)
- MIC Streptococcus pyogenes (GC 4563) ([2]; Streptococcus pyogenes (GC 4563), broth dilution, 18 hours at 35° C.): 1 µg/mL (≈ 0.64 µM)
- MIC Streptococcus pneumoniae (ATCC 6301) ([2]; strain ATCC 6301): 2 µg/mL (≈ 1.28 µM)
- MIC Streptococcus pneumoniae (GC 1894) ([2]; strain GC 1894): 0.25 µg/mL (≈ 0.16 µM)
- MIC Streptococcus pyogenes (GC 4563) ([2]; strain GC 4563): 1 µg/mL (≈ 0.64 µM)
- MIC Streptococcus agalactiae (GC 4564) ([2]; strain GC 4564): 0.5 µg/mL (≈ 0.32 µM)
- MIC Streptococcus pneumoniae (GC 4565) ([2]; strain GC 4565): 2 µg/mL (≈ 1.28 µM)
- MIC Coagulase Negative Staphylococcus (GC 4547) [3]: 4 µg/mL (≈ 2.56 µM)
- MIC Coagulase Negative Staphylococcus (GC 4548) [3]: 4 µg/mL (≈ 2.56 µM)
- MIC Coagulase Negative Staphylococcus (GC 4549) [3]: 4 µg/mL (≈ 2.56 µM)
- MIC Coagulase Negative Staphylococcus (GC 4551) [3]: 8 µg/mL (≈ 5.12 µM)
- MIC Staphylococcus aureus (ATCC 29213) [3]: 8 µg/mL (≈ 5.12 µM)
- MIC Staphylococcus aureus (GC 1131) [3]: 16 µg/mL (≈ 10.2 µM)
- MIC Staphylococcus aureus (GC 3051) [3]: 8 µg/mL (≈ 5.12 µM)
- MIC Staphylococcus aureus (GC 3053) [3]: 16 µg/mL (≈ 10.2 µM)
- MIC Staphylococcus aureus (GC 4541) [3]: 8 µg/mL (≈ 5.12 µM)
- MIC Staphylococcus aureus (GC 4542) [3]: 16 µg/mL (≈ 10.2 µM)
- MIC Staphylococcus aureus (GC 4544) [3]: 16 µg/mL (≈ 10.2 µM)
- MIC Staphylococcus aureus (GC 4545) [3]: 8 µg/mL (≈ 5.12 µM)
- MIC Staphylococcus aureus SMITH (GC 4543) [3]: 8 µg/mL (≈ 5.12 µM)
- MIC Staphylococcus haemolyticus (GC 4546) [3]: 4 µg/mL (≈ 2.56 µM)
- MIC Staphylococcus aureus-SMITH (GC 4543) ([3]; strain SMITH GC 4543): 8 µg/mL (≈ 5.12 µM)
- MIC Enterococcus faecalis (GC 2242) ([4]; Enterococcus faecalis (GC 2242), broth dilution, 18 hours at 35° C.): 16 µg/mL (≈ 10.2 µM)
- MIC Enterococcus faecalis (GC 2691) ([4]; Enterococcus faecalis (GC 2691), broth dilution, 18 hours at 35° C.): 16 µg/mL (≈ 10.2 µM)
- MIC Enterococcus faecalis (GC 3059) ([4]; Enterococcus faecalis (GC 3059), broth dilution, 18 hours at 35° C.): 16 µg/mL (≈ 10.2 µM)
- MIC Enterococcus faecalis (ATCC 29212) ([4]; strain ATCC 29212): 16 µg/mL (≈ 10.2 µM)
- MIC Enterococcus faecalis (GC 2242) ([4]; strain GC 2242): 16 µg/mL (≈ 10.2 µM)
- MIC Enterococcus faecium (GC 2243) ([4]; strain GC 2243): 8 µg/mL (≈ 5.12 µM)
- MIC Enterococcus faecalis (GC 2691) ([4]; strain GC 2691): 16 µg/mL (≈ 10.2 µM)
- MIC Enterococcus faecalis (GC 3059) ([4]; strain GC 3059): 16 µg/mL (≈ 10.2 µM)
- MIC Enterococcus faecalis (GC 4552) ([4]; strain GC 4552): 16 µg/mL (≈ 10.2 µM)
- MIC Enterococcus faecalis (GC 4553) ([4]; strain GC 4553): 8 µg/mL (≈ 5.12 µM)
- MIC Enterococcus faecalis (GC 4554) ([4]; strain GC 4554): 32 µg/mL (≈ 20.5 µM)
- MIC Enterococcus faecium (GC 4556) ([4]; strain GC 4556): 16 µg/mL (≈ 10.2 µM)
- MIC Enterococcus faecium (GC 4557) ([4]; strain GC 4557): 2 µg/mL (≈ 1.28 µM)
- MIC Enterococcus avium (GC 4558) ([4]; strain GC 4558): 4 µg/mL (≈ 2.56 µM)
- MIC Enterococcus faecalis (GC 6189) ([4]; strain GC 6189): 16 µg/mL (≈ 10.2 µM)
